Tests used:
Experiment in all cases: relative viability (nuclei count vs DMSO), 5 days (fraction); higher = more cells survive
Obatoclax + Phenformin = compound: COC1=CC(c2cc3ccccc3[nH]2)=N/C1=C\c1[nH]c(C)cc1C [Obatoclax] + N=C(N)NC(=N)NCCc1ccccc1 [Phenformin] (partner 250 µM)
Method in brief: (§1)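 Lung cancer cell lines were seeded in 1536-well plates and dosed by pin tool the next day, with either a single drug or a fixed anchor-drug dose combined with five library-drug doses (not always all listed) spaced in √10 steps. Five days later, one step fixed the cells and stained their nuclei (final 0.05% Triton X-100, 1% formaldehyde, 1 ug/ml Hoechst), and nuclei were counted on 4× images. Relative viability is the nuclei count in treated wells divided by the count in vehicle wells, and each value is the median of duplicate plates.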

[1] = compound: CC1=CC(=NN1)NC2=CC(=NC(=N2)/C=C/C3=CC=CC=C3)N4CCN(CC4)C + CC(=O)Nc1cccc(-n2c(=O)n(C3CC3)c(=O)c3c(Nc4ccc(I)cc4F)n(C)c(=O)c(C)c32)c1 [Trametinib] (partner 0.02 µM)
Method in brief: as §1

Bortezomib + Pictilisib = compound: CC(C)C[C@H](NC(=O)[C@H](Cc1ccccc1)NC(=O)c1cnccn1)B(O)O [Bortezomib] + CS(=O)(=O)N1CCN(Cc2cc3nc(-c4cccc5[nH]ncc45)nc(N4CCOCC4)c3s2)CC1 [Pictilisib] (partner 1 µM)
Method in brief: as §1

[2] = compound: CC1=CC(=NN1)NC2=CC(=NC(=N2)/C=C/C3=CC=CC=C3)N4CCN(CC4)C + CS(=O)(=O)N1CCN(Cc2cc3nc(-c4cccc5[nH]ncc45)nc(N4CCOCC4)c3s2)CC1 [Pictilisib] (partner 1 µM)
Method in brief: as §1

Cell Line: NCI-H2342
- relative viability (Obatoclax + Phenformin; first compound 0.01 µM): 0.744
- relative viability (Obatoclax + Phenformin; first compound 0.03162 µM): 0.573
- relative viability (Obatoclax + Phenformin; first compound 0.1 µM): 0.737
- relative viability (Obatoclax + Phenformin; first compound 0.3162 µM): 0.48
- relative viability (Obatoclax + Phenformin; first compound 1 µM): 0.584
- relative viability ([1]; first compound 0.08 µM): 1
- relative viability ([1]; first compound 0.253 µM): 0.869
- relative viability ([1]; first compound 0.8 µM): 0.958
- relative viability ([1]; first compound 2.53 µM): 0.962
- relative viability ([1]; first compound 8 µM): 0.602

Cell Line: HCC-827
- relative viability (Obatoclax + Phenformin; first compound 0.01 µM): 0.424
- relative viability (Obatoclax + Phenformin; first compound 0.03162 µM): 0.409
- relative viability (Obatoclax + Phenformin; first compound 0.1 µM): 0.46
- relative viability (Obatoclax + Phenformin; first compound 0.3162 µM): 0.373
- relative viability (Obatoclax + Phenformin; first compound 1 µM): 0.435
- relative viability (Bortezomib + Pictilisib; first compound 0.0002 µM): 0.772
- relative viability (Bortezomib + Pictilisib; first compound 0.000632 µM): 0.956
- relative viability (Bortezomib + Pictilisib; first compound 0.002 µM): 0.984
- relative viability (Bortezomib + Pictilisib; first compound 0.006325 µM): 0.82
- relative viability (Bortezomib + Pictilisib; first compound 0.02 µM): 0.235
- relative viability ([1]; first compound 0.08 µM): 0.507
- relative viability ([1]; first compound 0.253 µM): 0.405
- relative viability ([1]; first compound 0.8 µM): 0.513
- relative viability ([1]; first compound 2.53 µM): 0.427
- relative viability ([1]; first compound 8 µM): 0.273
- relative viability ([2]; first compound 0.08 µM): 0.961
- relative viability ([2]; first compound 0.253 µM): 1.02
- relative viability ([2]; first compound 0.8 µM): 1.07
- relative viability ([2]; first compound 2.53 µM): 0.747
- relative viability ([2]; first compound 8 µM): 0.8

Cell Line: NCI-H322M
- relative viability (Obatoclax + Phenformin; first compound 0.01 µM): 0.855
- relative viability (Obatoclax + Phenformin; first compound 0.03162 µM): 0.603
- relative viability (Obatoclax + Phenformin; first compound 0.3162 µM): 0.824
- relative viability (Obatoclax + Phenformin; first compound 1 µM): 0.62
- relative viability (Bortezomib + Pictilisib; first compound 0.0002 µM): 0.49
- relative viability (Bortezomib + Pictilisib; first compound 0.002 µM): 0.523
- relative viability (Bortezomib + Pictilisib; first compound 0.006325 µM): 0.459
- relative viability (Bortezomib + Pictilisib; first compound 0.02 µM): 0.554
- relative viability ([1]; first compound 0.08 µM): 0.485
- relative viability ([1]; first compound 0.253 µM): 0.57
- relative viability ([1]; first compound 0.8 µM): 0.811
- relative viability ([1]; first compound 2.53 µM): 0.337
- relative viability ([1]; first compound 8 µM): 0.327
- relative viability ([2]; first compound 0.08 µM): 0.456
- relative viability ([2]; first compound 0.253 µM): 0.52
- relative viability ([2]; first compound 0.8 µM): 0.463
- relative viability ([2]; first compound 2.53 µM): 0.219
- relative viability ([2]; first compound 8 µM): 0.242

Cell Line: ChaGo-K-1
- relative viability (Obatoclax + Phenformin; first compound 0.01 µM): 0.511
- relative viability (Obatoclax + Phenformin; first compound 0.03162 µM): 0.506
- relative viability (Obatoclax + Phenformin; first compound 0.1 µM): 0.444
- relative viability (Obatoclax + Phenformin; first compound 0.3162 µM): 0.462
- relative viability (Obatoclax + Phenformin; first compound 1 µM): 0.527
- relative viability (Bortezomib + Pictilisib; first compound 0.002 µM): 0.707
- relative viability (Bortezomib + Pictilisib; first compound 0.006325 µM): 0.29
- relative viability (Bortezomib + Pictilisib; first compound 0.02 µM): 0.207
- relative viability ([1]; first compound 0.08 µM): 0.937
- relative viability ([1]; first compound 0.253 µM): 0.887
- relative viability ([1]; first compound 0.8 µM): 0.807
- relative viability ([1]; first compound 2.53 µM): 0.753
- relative viability ([1]; first compound 8 µM): 0.19
- relative viability ([2]; first compound 0.08 µM): 0.605
- relative viability ([2]; first compound 0.253 µM): 0.912
- relative viability ([2]; first compound 0.8 µM): 1
- relative viability ([2]; first compound 2.53 µM): 0.292
- relative viability ([2]; first compound 8 µM): 0.271

Cell Line: BEN
- relative viability (Obatoclax + Phenformin; first compound 0.01 µM): 0.287
- relative viability (Obatoclax + Phenformin; first compound 0.03162 µM): 0.224
- relative viability (Obatoclax + Phenformin; first compound 0.3162 µM): 0.286
- relative viability (Obatoclax + Phenformin; first compound 1 µM): 0.277
- relative viability (Bortezomib + Pictilisib; first compound 0.0002 µM): 0.542
- relative viability (Bortezomib + Pictilisib; first compound 0.000632 µM): 0.557
- relative viability (Bortezomib + Pictilisib; first compound 0.002 µM): 0.531
- relative viability (Bortezomib + Pictilisib; first compound 0.006325 µM): 0.366
- relative viability (Bortezomib + Pictilisib; first compound 0.02 µM): 0.24
- relative viability ([1]; first compound 0.08 µM): 0.901
- relative viability ([1]; first compound 0.253 µM): 1.07
- relative viability ([1]; first compound 0.8 µM): 1.02
- relative viability ([1]; first compound 2.53 µM): 0.895
- relative viability ([1]; first compound 8 µM): 0.31
- relative viability ([2]; first compound 0.08 µM): 0.622
- relative viability ([2]; first compound 0.253 µM): 0.578
- relative viability ([2]; first compound 0.8 µM): 0.598
- relative viability ([2]; first compound 2.53 µM): 0.411
- relative viability ([2]; first compound 8 µM): 0.193

Cell Line: NCI-H2347
- relative viability (Obatoclax + Phenformin; first compound 0.01 µM): 0.496
- relative viability (Obatoclax + Phenformin; first compound 0.03162 µM): 0.366
- relative viability (Obatoclax + Phenformin; first compound 0.3162 µM): 0.506
- relative viability (Obatoclax + Phenformin; first compound 1 µM): 0.517
- relative viability (Bortezomib + Pictilisib; first compound 0.0002 µM): 0.803
- relative viability (Bortezomib + Pictilisib; first compound 0.000632 µM): 0.587
- relative viability (Bortezomib + Pictilisib; first compound 0.002 µM): 0.564
- relative viability (Bortezomib + Pictilisib; first compound 0.006325 µM): 0.318
- relative viability (Bortezomib + Pictilisib; first compound 0.02 µM): 0.0071
- relative viability ([1]; first compound 0.08 µM): 0.291
- relative viability ([1]; first compound 0.253 µM): 0.231
- relative viability ([1]; first compound 0.8 µM): 0.264
- relative viability ([1]; first compound 2.53 µM): 0.291
- relative viability ([1]; first compound 8 µM): 0.216
- relative viability ([2]; first compound 0.08 µM): 0.63
- relative viability ([2]; first compound 0.253 µM): 0.342
- relative viability ([2]; first compound 0.8 µM): 0.777
- relative viability ([2]; first compound 2.53 µM): 0.417
- relative viability ([2]; first compound 8 µM): 0.333

Cell Line: LOU-NH91
- relative viability (Obatoclax + Phenformin; first compound 0.01 µM): 0.716
- relative viability (Obatoclax + Phenformin; first compound 0.03162 µM): 0.657
- relative viability (Obatoclax + Phenformin; first compound 0.1 µM): 0.499
- relative viability (Obatoclax + Phenformin; first compound 0.3162 µM): 0.403
- relative viability (Obatoclax + Phenformin; first compound 1 µM): 0.432
- relative viability (Bortezomib + Pictilisib; first compound 0.0002 µM): 0.509
- relative viability (Bortezomib + Pictilisib; first compound 0.000632 µM): 0.479
- relative viability (Bortezomib + Pictilisib; first compound 0.002 µM): 0.395
- relative viability (Bortezomib + Pictilisib; first compound 0.006325 µM): 0.339
- relative viability (Bortezomib + Pictilisib; first compound 0.02 µM): 0.317
- relative viability ([1]; first compound 0.08 µM): 0.767
- relative viability ([1]; first compound 0.253 µM): 0.823
- relative viability ([1]; first compound 0.8 µM): 0.754
- relative viability ([1]; first compound 2.53 µM): 0.783
- relative viability ([1]; first compound 8 µM): 0.439
- relative viability ([2]; first compound 0.08 µM): 0.461
- relative viability ([2]; first compound 0.253 µM): 0.544
- relative viability ([2]; first compound 0.8 µM): 0.513
- relative viability ([2]; first compound 2.53 µM): 0.454
- relative viability ([2]; first compound 8 µM): 0.314

Cell Line: NCI-H2228
- relative viability (Obatoclax + Phenformin; first compound 0.01 µM): 0.339
- relative viability (Obatoclax + Phenformin; first compound 0.03162 µM): 0.387
- relative viability (Obatoclax + Phenformin; first compound 0.1 µM): 0.3
- relative viability (Obatoclax + Phenformin; first compound 0.3162 µM): 0.285
- relative viability (Obatoclax + Phenformin; first compound 1 µM): 0.159
- relative viability (Bortezomib + Pictilisib; first compound 0.0002 µM): 0.373
- relative viability (Bortezomib + Pictilisib; first compound 0.000632 µM): 0.418
- relative viability (Bortezomib + Pictilisib; first compound 0.002 µM): 0.355
- relative viability (Bortezomib + Pictilisib; first compound 0.006325 µM): 0.109
- relative viability (Bortezomib + Pictilisib; first compound 0.02 µM): 0.115
- relative viability ([1]; first compound 0.08 µM): 0.518
- relative viability ([1]; first compound 0.253 µM): 0.22
- relative viability ([1]; first compound 0.8 µM): 0.637
- relative viability ([1]; first compound 2.53 µM): 0.106
- relative viability ([1]; first compound 8 µM): 0.0612
- relative viability ([2]; first compound 0.08 µM): 0.433
- relative viability ([2]; first compound 0.253 µM): 0.547
- relative viability ([2]; first compound 0.8 µM): 0.468
- relative viability ([2]; first compound 2.53 µM): 0.065
- relative viability ([2]; first compound 8 µM): 0.0792

Cell Line: NCI-H358
- relative viability (Obatoclax + Phenformin; first compound 0.01 µM): 0.309
- relative viability (Obatoclax + Phenformin; first compound 0.03162 µM): 0.365
- relative viability (Obatoclax + Phenformin; first compound 0.1 µM): 0.432
- relative viability (Obatoclax + Phenformin; first compound 0.3162 µM): 0.339
- relative viability (Obatoclax + Phenformin; first compound 1 µM): 0.217
- relative viability (Bortezomib + Pictilisib; first compound 0.0002 µM): 0.331
- relative viability (Bortezomib + Pictilisib; first compound 0.000632 µM): 0.305
- relative viability (Bortezomib + Pictilisib; first compound 0.002 µM): 0.357
- relative viability (Bortezomib + Pictilisib; first compound 0.006325 µM): 0.207
- relative viability (Bortezomib + Pictilisib; first compound 0.02 µM): 0.16
- relative viability ([1]; first compound 0.08 µM): 0.124
- relative viability ([1]; first compound 0.253 µM): 0.123
- relative viability ([1]; first compound 0.8 µM): 0.128
- relative viability ([1]; first compound 2.53 µM): 0.0733
- relative viability ([1]; first compound 8 µM): 0.0762
- relative viability ([2]; first compound 0.08 µM): 0.296
- relative viability ([2]; first compound 0.253 µM): 0.29
- relative viability ([2]; first compound 0.8 µM): 0.293
- relative viability ([2]; first compound 2.53 µM): 0.138
- relative viability ([2]; first compound 8 µM): 0.108

— the supplement of paper PMC10307832
